Assay results published in US11560582B2, “Fusion moieties and microbial hosts for protein production” (priority 2018, dated 2023).

Key:
[1] = system: A. wodanis strain 03/09/160 (37); test: Antibiotic susceptibility testing on LB plates; format: cell-based, Aliivibrio wodanis; details: 12° C. for 2 days
Procedure: (§1) Antibiotic susceptibility testing was done by streaking A. wodanis cells onto LB plates supplemented with 2.5% NaCl and one of the following antibiotics: Chloramphenicol (2 μg/mL, Tetracycline (10 μg/mL), Carbenicillin (100 or 200 μg/mL) or Kanamycin (50 or 100 μg/mL). A. wodanis was regarded as susceptible (score=0) if no growth was detected, as intermediate susceptible (score=0.5) if poor growth was detected, or as resistant (score=1) if good growth was detected. The tested concentrations of antibiotics were similar to the recommended working concentrations for E. coli, except Chloramphenicol that was tested at 2 μg/mL (instead of 25 μg/mL). If the test scored as “resistant”, then the test was redone using 2× of the recommended concentration. All A. wodanis strains were streaked onto same agar plate and grown at 12° C. for 2 days.

[2] = system: A. wodanis strain 01/09/401 (11); test: Antibiotic susceptibility testing on LB plates; format: cell-based, Aliivibrio wodanis; details: 12° C. for 2 days
Procedure: as §1

[3] = system: A. wodanis strain 04/60/17347 (35); test: Antibiotic susceptibility testing on LB plates; format: cell-based, Aliivibrio wodanis; details: 12° C. for 2 days
Procedure: as §1

[4] = system: A. wodanis strain 06/09/178 (29); test: Antibiotic susceptibility testing on LB plates; format: cell-based, Aliivibrio wodanis; details: 12° C. for 2 days
Procedure: as §1

[5] = system: A. wodanis strain 02/09/569 (7); test: Antibiotic susceptibility testing on LB plates; format: cell-based, Aliivibrio wodanis; details: 12° C. for 2 days
Procedure: as §1

[6] = system: A. wodanis strain 06/09/170 (27); test: Antibiotic susceptibility testing on LB plates; format: cell-based, Aliivibrio wodanis; details: 12° C. for 2 days
Procedure: as §1

[7] = system: A. wodanis strain 90/09/325 (5); test: Antibiotic susceptibility testing on LB plates; format: cell-based, Aliivibrio wodanis; details: 12° C. for 2 days
Procedure: as §1

[8] = system: A. wodanis strain 88/09/441 (12) (T); test: Antibiotic susceptibility testing on LB plates; format: cell-based, Aliivibrio wodanis; details: 12° C. for 2 days
Procedure: as §1

[9] = system: A. wodanis strain 02/09/382 (8); test: Antibiotic susceptibility testing on LB plates; format: cell-based, Aliivibrio wodanis; details: 12° C. for 2 days
Procedure: as §1

[10] = system: A. wodanis strain 89/09/5532 (1); test: Antibiotic susceptibility testing on LB plates; format: cell-based, Aliivibrio wodanis; details: 12° C. for 2 days
Procedure: as §1

[11] = system: A. wodanis strain K7F1 150913; format: cell-based, Aliivibrio wodanis; details: 12° C. for 2 days
Procedure: as §1

A. wodanis strains = details: have been reported; cited from earlier work
[12] = system: ssDNA "molecular beacon" substrate; test: Exonuclease I molecular beacon activity assay; format: biochemical; details: affinity purified enzyme expressed in A. wodanis 03/09/160; increasing enzyme
Procedure: The two enzyme activity assays used in this work are both based on so-called “molecular beacons”. Each “molecular beacon” consists of a hairpin shaped DNA oligonucleotide with an internally quenched fluorophore (in this case FAM). TAMRA was used as the FAM quencher. Enzyme activity of affinity purified AsExoI and MvExoI were tested in 50 μL reactions containing the following: 0.2 μM ssDNA “molecular beacon” substrate (5′-FAM-CGCCATCGGAGGTTC-TAMRA-3′ (SEQ ID NO:45)), 50 mM Tris pH 8.5, 30 mM MgCl2, 1 mM DTT, 0.2 mg/ml BSA, 2% glycerol and 8.5 nM enzyme (Exonuclease I). The reaction was carried out in a black 96-well fluorescence assay plate (Corning®), and increase in FAM fluorescence (excitation at 485 nm, emission at 518 nm) was measured as relative fluorescence units (RFU) at appropriate time intervals for 40 min.

molecular beacon probe = test: DNA polymerase molecular beacon activity assay; format: biochemical; details: affinity purified enzyme expressed in A. wodanis 03/09/160; increasing enzyme
Description: Activity assay for AsPoIII is based on a molecular beacon probe (5″-GGCCCGT^Dabcyl[…]^FAMACGGGCCGTCAAGTT CATG […]-3′ (SEQ ID NO:46)) (modified from Summerer, 2008). The molecular beacon probe consists of a 23mer loop that is connected by a GC-rich 8mer stem region (the 8-mer stem region consists of two 8 nucleotide sequences-sequences are indicated in italics) and a 43mer extension. The fluorophores Dabcyl and FAM are attached to the indicated “T” nucleotides. Due to the loop formation the fluorophores Dabcyl and FAM are in close proximity and thus quenched. Upon extension by the DNA polymerase I of the primer (5″-GTGGTGCGAAATTTCTGAC-3′ (SEQ ID NO:47)) that is annealed to the molecular beacon template the stem is opened and the increase in distance of the two fluorophores is measured by the restoration of FAM fluorescence (excitation 485 nm, emission 518 nm). Assay was monitored in 50 μL reactions containing 0.2 μM substrate (molecular beacon) mixed with 0.2 mM dNTP in 1× reaction buffer (250 mM Tris-HCl, pH 8.5, 250 mM, KCl, 25 mM MgCl2) and 1×DB (1 mg/ml BSA, 5 mM DTT, 10% glycerol). The mixture was first incubated at 25° C. for 5 min, and the reaction was started by adding the purified enzyme. Increase in fluorescence was measured (excitation 485 nm, emission 518 nm) for 15 min with 10 sec intervals (total of 91 reads). […]

Molecule: CN(C)[C@@H]1C(O)=C(C(N)=O)C(=O)[C@@]2(O)C(O)=C3C(=O)c4c(O)cccc4[C@@](C)(O)[C@H]3C[C@@H]12 [TET, Tetracycline]
- Antibiotics resistance TET 10 μg/mL ([1]; 10 μg/mL): 0
- Antibiotics resistance TET 10 μg/mL ([2]; 10 μg/mL): 0
- Antibiotics resistance TET 10 μg/mL ([3]; 10 μg/mL): 0
- Antibiotics resistance TET 10 μg/mL ([4]; 10 μg/mL): 0
- Antibiotics resistance TET 10 μg/mL ([5]; 10 μg/mL): 0
- Antibiotics resistance TET 10 μg/mL ([6]; 10 μg/mL): 0
- Antibiotics resistance TET 10 μg/mL ([7]; 10 μg/mL): 0
- Antibiotics resistance TET 10 μg/mL ([8]; 10 μg/mL): 0
- Antibiotics resistance TET 10 μg/mL ([9]; 10 μg/mL): 0
- Antibiotics resistance TET 10 μg/mL ([10]; 10 μg/mL): 0
- Antibiotics resistance TET 10 μg/mL ([11]; 10 μg/mL): 0

Molecule: CC1(C)S[C@@H]2[C@H](NC(=O)[C@H](N)c3ccccc3)C(=O)N2[C@H]1C(=O)O [ampicillin]
- Resistance of A. wodanis strains (reported) (A. wodanis strains): Resistance

Molecule: NC[C@H]1O[C@H](O[C@H]2[C@H](O)[C@@H](O[C@H]3O[C@H](CO)[C@@H](O)[C@H](N)[C@H]3O)[C@H](N)C[C@@H]2N)[C@H](O)[C@@H](O)[C@@H]1O [KAN, Kanamycin]
- Antibiotics resistance KAN 50 μg/mL ([1]; 50 μg/mL): 1
- Antibiotics resistance KAN 100 μg/mL ([1]; 100 μg/mL): 0.5
- Antibiotics resistance KAN 50 μg/mL ([2]; 50 μg/mL): 1
- Antibiotics resistance KAN 100 μg/mL ([2]; 100 μg/mL): 0.5
- Antibiotics resistance KAN 50 μg/mL ([3]; 50 μg/mL): 1
- Antibiotics resistance KAN 100 μg/mL ([3]; 100 μg/mL): 0.5
- Antibiotics resistance KAN 50 μg/mL ([4]; 50 μg/mL): 1
- Antibiotics resistance KAN 100 μg/mL ([4]; 100 μg/mL): 0.5
- Antibiotics resistance KAN 50 μg/mL ([5]; 50 μg/mL): 1
- Antibiotics resistance KAN 100 μg/mL ([5]; 100 μg/mL): 0.5
- Antibiotics resistance KAN 50 μg/mL ([6]; 50 μg/mL): 0.5
- Antibiotics resistance KAN 100 μg/mL ([6]; 100 μg/mL): 0.5
- Antibiotics resistance KAN 50 μg/mL ([7]; 50 μg/mL): 1
- Antibiotics resistance KAN 100 μg/mL ([7]; 100 μg/mL): 0.5
- Antibiotics resistance KAN 50 μg/mL ([8]; 50 μg/mL): 1
- Antibiotics resistance KAN 100 μg/mL ([8]; 100 μg/mL): 0.5
- Antibiotics resistance KAN 50 μg/mL ([9]; 50 μg/mL): 1
- Antibiotics resistance KAN 100 μg/mL ([9]; 100 μg/mL): 0.5
- Antibiotics resistance KAN 50 μg/mL ([10]; 50 μg/mL): 1
- Antibiotics resistance KAN 100 μg/mL ([10]; 100 μg/mL): 0.5
- Antibiotics resistance KAN 50 μg/mL ([11]; 50 μg/mL): 1
- Antibiotics resistance KAN 100 μg/mL ([11]; 100 μg/mL): 0.5

B1: AsExoI: Exonuclease I from Aliivibrio salmonicida (SEQ ID NO: 37), His-tagged, expressed in A. wodanis (protein, listed as Aliivibrio salmonicida)
chain: MPQDNAPSFFFFDYETWGTSPSLDRPCQFAGVRTDEDFNIIGEPLVIYCRPPIDYLPSPEACLITGITPQMAVSKGLSEPEFIAQIHNELSKPNTCSLGYNNIRFDDEVSRYTLYRNFFEPYGWSWQNGNSRWDLLDVMRAVYALRPEGIEWPKDEEGKPSFRLEKLSQANGIEHENAHDAMADVIATIELAKVVKKAQPKMFNYLLSMRHKKKAATLIDIIEMTPLMHVSGMFGVDRGNISWIVPVAWHPTNNNAVITIDLALDPAVFLELDAEQLHQRMYTKRSELGPDELPVPVKLVHLNKCPILAPAKTLTAENAIALNVDREACLRNLKVIRENPEIRQKLIDLYNIEPGYEKSSNVDTLLYDGFFSHADKTAIDMIRQSTPEQLIDFEPNVSDPRIKPLLFRYRARNFPHTLNESEQLRWQAHLQDYFETHMSDYETRFESLYLESEGNEKKTAILRAVYNYVQQLVS
modifications: 6xHis tag
- exonuclease activity (FAM fluorescence, RFU) [12]: dose-dependent

B2: AsPoIII: DNA polymerase II from Aliivibrio salmonicida (SEQ ID NO: 38), His-tagged, expressed in A. wodanis (protein, listed as Aliivibrio salmonicida)
chain: LNSPHCGFLLTRQNKDIRDHSLVDLWVKCDDHIAHLLIENELAVIFFLKERQAEYESILTNAHIHYSIKSTSLHTFQHQPVFGLYFSSTQQKRVATALFEDHQLPTFEGDIRLADRYLMERFICGGMAFVGTPRQRKGYVEYRDVKIKSAEMTPEFSVVSLDVECSEKGILYSVALHCERDTRIIMVGPEETSDLPIEWVENEKALLLALESWFQTFDPDIIIGWNVINFDFNLLIKRAKWHNLAFRLGRGNSSLYFRESNKNRQQGFLSFPGRVVLDGIDALKTATYHFSSWSLESVSQELLNEGKSIHDPSDRMGEINRMYREDKCALAKYNLQDCVLVTRIFELTHLLEFVIERTKLTGIELDRVGGSVAAFTNLYLPRLHRAGYIAPNLESENWIASPGGYVMSSKPGLYESVLVLDFKSLYPSIIKTFRIDPLGLVEGLKLESGIDDGQAIEGFRGGRFHRTKHFLPNLIETLWSARDVAKKNNEKAFSQAIKIIMNSFYGVLGSSGCRFFDHRLASSITMRGHEIMKTTRELIESQGYEVIYGDTDSTFVTLGESMPSDEADKIGKQLVDHINQWWTAHLESEYAIDSALEIEYETHYRIFLMPTIRGSEMGSKKRYAGLIRKGDKEEIIFKGLETVRTDWTPLSQEFQKVLFDKVFHQQAVEEYVREYVDKTKSGEFDNKLIYRKRLRRQLDEYQKNVPPHVKAARIADTQNQKLGKPLMYQQGGWIEYIITTAGPEPIEYRQNPIDYDHYVEKQLKPIAEGILPFVNLSFTELSASQLGLF
modifications: 6xHis tag
- DNA polymerase activity (FAM fluorescence, RFU) (molecular beacon probe): dose-dependent
